Laboratory results published in article PMC9611471 (Pharmaceutics, 2022).
Entries after “also recorded” stand apart in the source; their conditions may differ.

How the values were obtained:
[1] = tested on: A549 cells; assay: Colony formation assay; assay type: cell-based, human; conditions: 5 and 10 μM
Method: A549 cells (1 × 10^3 cells/well) were seeded into six-well plates and then each compound was treated at 5 and 10 μM for 12 h. The medium was changed every two days, and the cells were cultured in a fresh medium for 10 days. The obtained colonies were fixed with 25% glutaraldehyde for 20 min and then stained with 0.1% crystal violet for 15 min.

[2] = tested on: A549 cells; assay: SK1 and SK2 protein (Western blotting) and mRNA (qRT-PCR) levels; assay type: cell-based, human; conditions: 5 and 10 μM, 24 h
Method: (§1) Western blotting measured changes in apoptosis-related proteins (PARP, BAX, BCL-2, Caspase-3). A549 cells (1 × 10^6 cells per well in 6-well plates) were incubated for 24 h. Cells were treated with concentrations of the compounds and incubated for 24 h. Then, cells were dissolved on ice for two hours with a lysis buffer containing a mixture of protease and phosphatase inhibitors. The lysate was centrifuged at 12,000× g for 15 min at 4 °C, and the supernatant was collected. Protein concentrations were measured using a bicinchoninic acid protein assay kit. Total protein was separated by 8–10% sodium dodecyl sulfate–polyacrylamide gel electrophoresis (SDS-PAGE) and transferred onto polyvinylidene fluoride (PVDF) membranes. After being blocked with 5% skim milk, membranes were probed overnight at 4 °C with primary antibodies against SK1, SK2, PARP, BAX, Bcl-2, Caspase-3, and β-actin. Then, the membranes were incubated with subsequent secondary antibodies at room temperature. Then, the protein expressions were measured by Amersham Imager 680 (GE Healthcare, Leiden, WZ, The Netherlands).
RNAs were isolated using the Trizol/chloroform reagent (Invitrogen, Waltham, MA, USA). […] For quantitative analysis of various genes, qRT-PCR was performed using the Bio-Rad CFX384 Touch Real-time PCR detection system (Bio-Rad, Hercules, CA, USA) with SYBR Premix Ex Taq (Takara Bio, Shiga, Japan) for 40 cycles.

[3] = tested on: A549 cells; assay: Levels of sphingosine, ceramide and S1P (ELISA); assay type: cell-based, human; conditions: 5 and 10 μM
Method: After seeding 1 × 10^6 cells/well into a 6-well plate and incubating for 24 h, the synthetic compounds were treated by concentration. Then, cells were collected and freezing and thawing were repeated three to five times, and centrifuged supernatant was used for testing. The levels of sphingosine, ceramide, and S1P were measured according to the proposed manual using each ELISA kit (Mybiosource, Inc., San Diego, CA, USA).

[4] = tested on: A549 cells; assay: Annexin V-FITC apoptosis analysis; assay type: cell-based, human; conditions: 24 h
Method: A549 cells (1 × 10^5 cells) were seeded in into a 12-well plate. […] After harvesting the cells, the binding buffer was added and then incubated with annexin-V-FITC and PI at room temperature for 15 min. The stained cells were analyzed with MACS Quant Analyzer 10 Flow Cytometer (Miltenyi Biotec, Bergisch Gladbach, Germany) within 1 h.

[5] = tested on: A549 cells; assay: Western blotting of apoptosis-related proteins; assay type: cell-based, human; conditions: 5 and 10 μM, 24 h
Method: as §1

[6] = tested on: A549 cells; assay: Cytotoxicity after SK1/SK2 siRNA transfection; assay type: cell-based, human; conditions: A549 cells transfected with siSK1, siSK2; 24 h
Method: Control small interfering RNA (siControl) was obtained from Bioneer (Daejeon, Korea), while SK1 (sc-44114) and SK2 (sc-39225) siRNA (siSK1 and siSK2) were purchased from Santa Cruz Biotechnology (Dallas, TX, USA). Cells were transfected using Lipofectamine RNAiMAX Reagent (Invitrogen, Carlsbad, CA, USA) according to the manufacturer’s instructions. Transfection efficiency was monitored by Western blot. After 24 h of infection, cytotoxicity was measured using infected cells.

[7] = In vitro metabolic stability, dog liver microsomes; assay type: in vitro ADME; conditions: pooled liver microsomes, NADPH, 37 °C, 0 and 30 min
[8] = Serum analysis of tumor xenograft mice; assay type: in vivo; conditions: serum biochemical assays; 5 mg/kg i.p., 29 days
Method: Five-week-old BALB/c-nu/nu male mice were purchased from Orient Bio Inc. (Seongnam, Gyeonggi-do, Korea). The mice were housed in a climate-controlled room (22 ± 2 °C, 50 ± 10% relative humidity) and specific pathogen-free conditions with a 12 h light/dark cycle and adapted for a week with free access to food and water. Cages, bedding, and drinking water were autoclaved and changed regularly. The cancer cell suspension {3 × 10^7 cells/ 150 μL phosphate-buffered saline (PBS)} was inoculated subcutaneously into the right flank. Measurable tumors were found 7–8 days after cell inoculation, and tumors grew in 90% of the injection site two weeks later. The mice were randomly divided into test groups (12 mice per group) when the tumor volume reached 100 mm^2 about two weeks after the inoculation (experimental day 0). The control group (vehicle-treated group) and Compound 4 (5 mg/kg) were administered i.p. 3 times a week. The formulation of Compound 4 was prepared in a mixture of 10% DMSO + 90% PBS. The tumor growth rate and body weights in each of the two groups were measured every three days using a Vernier caliper and a digital weighing balance, respectively. Tumor volume was calculated as l × b^2 × 0.52, where l is the length and b is the width. […]
Blood samples were centrifuged at 3000× g for 20 min, and levels of ALT, AST, ALP, sphingosine, ceramide, and S1P were measured using a kit.

[9] = target: SK1 (Homo sapiens, UniProt Q9NYA1); assay: SK1 activity assay (Adapta screening system)
[10] = tested on: A549 and H1299 cells; assay: Cell proliferation / viability assay (EZ-CYTOX)
[11] = In vitro metabolic stability, human liver microsomes; conditions: pooled liver microsomes 0.5 mg/mL, NADPH, 37 °C, 0 and 30 min

Chain of SK1 (Q9NYA1 whole entry): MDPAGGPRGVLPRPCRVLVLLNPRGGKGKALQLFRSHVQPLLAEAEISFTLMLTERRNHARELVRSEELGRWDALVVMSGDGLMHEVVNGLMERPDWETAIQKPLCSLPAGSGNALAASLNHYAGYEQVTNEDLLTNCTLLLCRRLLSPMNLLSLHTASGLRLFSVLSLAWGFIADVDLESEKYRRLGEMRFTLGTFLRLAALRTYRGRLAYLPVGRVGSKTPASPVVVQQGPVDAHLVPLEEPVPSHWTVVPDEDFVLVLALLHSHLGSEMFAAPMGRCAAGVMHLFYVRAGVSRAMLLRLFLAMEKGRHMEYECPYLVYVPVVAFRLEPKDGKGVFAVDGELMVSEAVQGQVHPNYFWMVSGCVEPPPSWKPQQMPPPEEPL

## Cc1cc(CN(Cc2cc(C)cc(CS(=O)(=O)c3ccccc3)c2)c2ccc(CCN3CCC(CO)CC3)cc2)cc(CS(=O)(=O)c2ccccc2)c1 [Compound 4, (1-(4-(Bis(3-methyl-5-((phenylsulfonyl)methyl)benzyl)amino)phenethyl)piperidin-4-yl)methanol]
[1]
  colony formation: reduce colony formation in a concentration-dependent manner
[2]
  expression of proteins and mRNAs of SK1 and SK2: did not affect
[3]
  S1P levels: reduced; also recorded: inhibited S1P at a level similar to that of PF-543
  ceramide levels: increased
  sphingosine levels: slightly lower sphingosine expression than PF-543
[4]; 5 μM
  apoptotic effect (annexin-V): significant effect
[4]; 10 μM
  apoptotic effect (annexin-V): significantly higher apoptotic effect compared to PF-543
[5]
  levels of PARP, Caspase-3 and cleaved PARP: levels of PARP and Caspase-3 were decreased and cleavage of PARP was increased
[6]
  dependence of cytotoxic efficacy on SK1/SK2 (siRNA knockdown): more dependent on SK1, although SK2 is also partially involved
[7]
  MS DLM: 26.1
[8]
  hepatotoxicity: does not appear to cause hepatotoxicity
[9]; SK1 vs SK2, compared to PF-543
  selectivity for SK1: lower selectivity for SK1 compared to PF-543
[9]; read-out: SK1 inhibitory efficacy
  inhibition at 10 µM: 31%
[10]; 20 and 40 μM, A549 and H1299 cells
  cytotoxic effects compared with FTY720: cytotoxic effects similar to those of FTY720
[10]; Homo sapiens, 24 h, read-out: IC50 (cytotoxic effect)
  IC50: 7.75 µM
[11]
  MS HLM: 30.2
